The values that follow come from patent US10464977B2 (University of Maryland, Baltimore, priority 2016, dated 2019).

Structures are written as SMILES. Residues, ends and D or L forms follow the SMILES beside them.

The target of one data set is Sap2 (Candida albicans, UniProt P0DJ06). Kind of data set: in vitro. The conditions noted are these: 2 h, 37° C.; for degradation by Sap2 (in words): 6.25 μg mL^−1 Sap2, 150 μg mL^−1 peptide. Here is the method:
(§1) Experiments were done in 1 mM NaPB. The mixtures were incubated at 37° C. for 2 h, and NaPB with no Sap was used as a control. After the incubation, the samples were mixed with tricine sample buffer (without Coomassie Blue G-250, except in control samples) containing β-mercaptoethanol and boiled for 5 min at 100° C. to inactivate the proteases. The degraded and non-degraded peptides were separated by gel electrophoresis in 10-20% Tris-tricine gels (Bio-Rad), and the gels were then fixed in a 10% acetic acid/40% methanol/50% water mixture for 30 min. The fixed gels were stained with Bio-Safe Coomassie stain (Bio-Rad) for 1 h and washed with fresh water three times, once overnight and then twice for at least 2 h each time. The gels were imaged on a Chemidoc imager (Bio-Rad), and densitometric analysis was done with Image Lab software (Bio-Rad). […] Three replicates of the assay were done.
(§2) To measure the antifungal activity of the peptides following degradation by the Saps, the antifungal activity assay was performed as described above, except the peptides were first exposed to Saps. The peptide fragments were prepared by incubating each peptide (150 μg mL^−1) with 6.25 μg mL^−1 Sap9 or 18 μg mL^−1 Sap2 for 2 h at 37° C. The enzymes were then inactivated by heating at 100° C. for 5 min. As controls, each peptide was also incubated with only NaPB buffer. Samples were then stored at −20° C. until use in the antifungal activity assay.
(§3) The intact peptide was then separated from the degradation products using gel electrophoresis and quantified the level of degradation using densitometric analysis of Coomassie-stained gels.
(§4) To amplify differences in antifungal activity due to degradation by the Saps, the concentrations of the Saps was increased by at least two-fold compared to the concentrations used for the gel electrophoresis data in FIGS. 1A-1D (to 6.25 μg mL^−1 for Sap9 and 18 μg mL^−1 for Sap2).

In another data set the target is Sap9 (Candida albicans, UniProt Q59SU1). Kind of data set: in vitro. Particulars: 2 h, 37° C.; for degradation by Sap9 (in words): 3.13 μg mL^−1 Sap9, 150 μg mL^−1 peptide; for degradation at higher Sap9 concentration (in words): 6.25 μg mL^−1 Sap9, 150 μg mL^−1 peptide. The method, then:
as §1, §2, §3, §4

Data set [1] has as its system C. albicans cells (ATCC 90028). Kind of data set: Degradation of peptides by whole C. albicans cells, gel densitometry. Format: in vitro ADME. The conditions noted are these: 1×10^9 cells mL^−1, 150 μg mL^−1 peptide, 2 h, 37° C., 100 mM NaPB. Here is the method:
For degradation with C. albicans, a single colony of the ATCC 90028 strain (American Type Culture Collection) was used to inoculate YPD. The culture was grown overnight, subcultured, and grown to an optical density of 1-1.2 at OD600. All incubations were done at 30° C. The cells were washed three times in 100 mM NaPB and diluted to 2×10^9 cells mL^−1. Equal volumes of cells and peptides were mixed and incubated for 2 h at 37° C. The cells were removed by centrifugation, and the supernatants were mixed with tricine sample buffer and boiled for 10 min. The samples were then run on gels and analyzed as described above for degradation by the Saps. Three biological replicates were performed.
After observing the effect of residue modifications on the cleavage of Hst-5 by the purified recombinant Saps, whether incubation of the peptides with whole C. albicans cells expressing Saps (rather than Saps produced recombinantly) would yield similar results was evaluated. Hst-5 and the synthetic peptides were incubated with C. albicans cells for 2 h at 37° C. in 100 mM NaPB. The high ionic strength of this buffer prevents internalization of the peptides by C. albicans (4) allowing analysis of degradation of the peptides without the confounding effects of peptide internalization, which would reduce the amount of peptide in the reaction buffer.

Sequence of Sap2 (P0DJ06 57-398): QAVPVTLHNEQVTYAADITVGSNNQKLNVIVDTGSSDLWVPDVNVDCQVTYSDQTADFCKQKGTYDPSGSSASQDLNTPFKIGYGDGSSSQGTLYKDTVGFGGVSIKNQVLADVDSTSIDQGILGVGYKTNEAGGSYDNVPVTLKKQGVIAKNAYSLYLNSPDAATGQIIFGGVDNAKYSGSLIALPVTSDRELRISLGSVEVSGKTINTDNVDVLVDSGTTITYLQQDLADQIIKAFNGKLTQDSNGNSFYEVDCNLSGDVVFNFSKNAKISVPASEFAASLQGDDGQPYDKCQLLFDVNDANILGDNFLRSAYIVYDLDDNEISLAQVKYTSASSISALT
Sequence of Sap9 (Q59SU1 18-520): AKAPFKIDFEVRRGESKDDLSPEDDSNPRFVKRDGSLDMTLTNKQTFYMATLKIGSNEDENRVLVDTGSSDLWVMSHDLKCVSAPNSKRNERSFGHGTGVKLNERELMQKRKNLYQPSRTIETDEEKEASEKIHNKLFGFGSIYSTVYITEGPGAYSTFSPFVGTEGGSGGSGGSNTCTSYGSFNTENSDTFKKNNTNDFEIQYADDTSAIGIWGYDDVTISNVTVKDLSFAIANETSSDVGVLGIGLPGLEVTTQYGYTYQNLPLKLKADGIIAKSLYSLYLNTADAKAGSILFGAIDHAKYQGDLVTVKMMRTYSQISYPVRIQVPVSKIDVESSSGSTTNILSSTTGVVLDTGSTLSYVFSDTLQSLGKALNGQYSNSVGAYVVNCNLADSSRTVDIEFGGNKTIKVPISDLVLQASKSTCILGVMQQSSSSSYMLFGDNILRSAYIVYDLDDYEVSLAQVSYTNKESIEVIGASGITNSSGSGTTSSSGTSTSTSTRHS

As to `CC(C)C[C@H](NC(=O)[C@H](Cc1c[nH]cn1)NC(=O)[C@H](Cc1ccccc1)NC(=O)[C@H](CCCCN)NC(=O)[C@H](CCCNC(=N)N)NC(=O)[C@H](CCCCN)NC(=O)[C@H](Cc1ccc(O)cc1)NC(=O)CNC(=O)[C@H](Cc1c[nH]cn1)NC(=O)[C@H](Cc1c[nH]cn1)NC(=O)[C@H](CCCNC(=N)N)NC(=O)[C@H](CCCCN)NC(=O)[C@H](C)NC(=O)[C@H](Cc1c[nH]cn1)NC(=O)[C@H](CO)NC(=O)[C@@H](N)CC(=O)O)C(=O)N[C@@H](CCCCN)C(=O)N[C@@H](Cc1c[nH]cn1)C(=O)N[C@@H](Cc1c[nH]cn1)C(=O)N[C@@H](CO)C(=O)N[C@@H](Cc1c[nH]cn1)C(=O)N[C@@H](CCCNC(=N)N)C(=O)NCC(=O)N[C@@H](Cc1ccc(O)cc1)C(=O)O` [Peptide E16L] (H-DSHAKRHHGYKRKFHLKHHSHRGY-OH; N-terminus and C-terminus assumed), on Sap2, the “degradation by Sap2 (in words)” value is reported as “increased compared to Hst-5”. The “degradation by Sap9 (in words)” value on Sap9 was “increased compared to Hst-5”.
On to `CC(C)C[C@H](NC(=O)[C@H](C)NC(=O)[C@H](Cc1c[nH]cn1)NC(=O)[C@H](CO)NC(=O)[C@@H](N)CC(=O)O)C(=O)N[C@@H](CCCNC(=N)N)C(=O)N[C@@H](Cc1c[nH]cn1)C(=O)N[C@@H](Cc1c[nH]cn1)C(=O)NCC(=O)N[C@@H](Cc1ccc(O)cc1)C(=O)N[C@@H](CCCCN)C(=O)N[C@@H](CCCNC(=N)N)C(=O)N[C@@H](CCCCN)C(=O)N[C@@H](Cc1ccccc1)C(=O)N[C@@H](Cc1c[nH]cn1)C(=O)N[C@@H](CCC(=O)O)C(=O)N[C@@H](CCCCN)C(=O)N[C@@H](Cc1c[nH]cn1)C(=O)N[C@@H](Cc1c[nH]cn1)C(=O)N[C@@H](CO)C(=O)N[C@@H](Cc1c[nH]cn1)C(=O)N[C@@H](CCCNC(=N)N)C(=O)NCC(=O)N[C@@H](Cc1ccc(O)cc1)C(=O)O` [Peptide K5L] (H-DSHALRHHGYKRKFHEKHHSHRGY-OH; N-terminus and C-terminus assumed), for which, at Sap9, the “degradation by Sap9 (in words)” value is given as “greater degradation than their arginine-substituted counterparts or parent Hst-5” and the “degradation at higher Sap9 concentration (in words)” value is listed as “not intact”. Further, the “degradation by C. albicans cells (in words)” value in data set [1] is “decrease in proteolysis”.
For the compound `C[C@H](NC(=O)[C@H](Cc1c[nH]cn1)NC(=O)[C@H](CO)NC(=O)[C@@H](N)CC(=O)O)C(=O)N[C@@H](CCCNC(=N)N)C(=O)N[C@@H](CCCNC(=N)N)C(=O)N[C@@H](Cc1c[nH]cn1)C(=O)N[C@@H](Cc1c[nH]cn1)C(=O)NCC(=O)N[C@@H](Cc1ccc(O)cc1)C(=O)N[C@@H](CCCCN)C(=O)N[C@@H](CCCNC(=N)N)C(=O)N[C@@H](CCCCN)C(=O)N[C@@H](Cc1ccccc1)C(=O)N[C@@H](Cc1c[nH]cn1)C(=O)N[C@@H](CCC(=O)O)C(=O)N[C@@H](CCCCN)C(=O)N[C@@H](Cc1c[nH]cn1)C(=O)N[C@@H](Cc1c[nH]cn1)C(=O)N[C@@H](CO)C(=O)N[C@@H](Cc1c[nH]cn1)C(=O)N[C@@H](CCCNC(=N)N)C(=O)NCC(=O)N[C@@H](Cc1ccc(O)cc1)C(=O)O` [Peptide K5R] (H-DSHARRHHGYKRKFHEKHHSHRGY-OH; N-terminus and C-terminus assumed), the “intact peptide at higher Sap2 concentration (in words)” value at Sap2 (18 μg mL^−1 Sap2, 150 μg mL^−1 peptide) is reported as “no statistically significant amount of these peptides remained”. The “degradation by C. albicans cells (in words)” value in data set [1] is listed as “no significant effect”.
In the case of `CC(C)C[C@H](NC(=O)[C@H](Cc1ccc(O)cc1)NC(=O)CNC(=O)[C@H](Cc1c[nH]cn1)NC(=O)[C@H](Cc1c[nH]cn1)NC(=O)[C@H](CCCNC(=N)N)NC(=O)[C@H](CCCCN)NC(=O)[C@H](C)NC(=O)[C@H](Cc1c[nH]cn1)NC(=O)[C@H](CO)NC(=O)[C@@H](N)CC(=O)O)C(=O)N[C@@H](CCCNC(=N)N)C(=O)N[C@@H](CCCCN)C(=O)N[C@@H](Cc1ccccc1)C(=O)N[C@@H](Cc1c[nH]cn1)C(=O)N[C@@H](CCC(=O)O)C(=O)N[C@@H](CCCCN)C(=O)N[C@@H](Cc1c[nH]cn1)C(=O)N[C@@H](Cc1c[nH]cn1)C(=O)N[C@@H](CO)C(=O)N[C@@H](Cc1c[nH]cn1)C(=O)N[C@@H](CCCNC(=N)N)C(=O)NCC(=O)N[C@@H](Cc1ccc(O)cc1)C(=O)O` [Peptide K11L] (H-DSHAKRHHGYLRKFHEKHHSHRGY-OH; N-terminus and C-terminus assumed), at Sap9, the “degradation by Sap9 (in words)” value is “greater degradation than their arginine-substituted counterparts or parent Hst-5” and the “degradation at higher Sap9 concentration (in words)” value was “not intact”.
As to `C[C@H](NC(=O)[C@H](Cc1c[nH]cn1)NC(=O)[C@H](CO)NC(=O)[C@@H](N)CC(=O)O)C(=O)N[C@@H](CCCCN)C(=O)N[C@@H](CCCNC(=N)N)C(=O)N[C@@H](Cc1c[nH]cn1)C(=O)N[C@@H](Cc1c[nH]cn1)C(=O)NCC(=O)N[C@@H](Cc1ccc(O)cc1)C(=O)N[C@@H](CCCNC(=N)N)C(=O)N[C@@H](CCCNC(=N)N)C(=O)N[C@@H](CCCCN)C(=O)N[C@@H](Cc1ccccc1)C(=O)N[C@@H](Cc1c[nH]cn1)C(=O)N[C@@H](CCC(=O)O)C(=O)N[C@@H](CCCNC(=N)N)C(=O)N[C@@H](Cc1c[nH]cn1)C(=O)N[C@@H](Cc1c[nH]cn1)C(=O)N[C@@H](CO)C(=O)N[C@@H](Cc1c[nH]cn1)C(=O)N[C@@H](CCCNC(=N)N)C(=O)NCC(=O)N[C@@H](Cc1ccc(O)cc1)C(=O)O` [Peptide K11R-K17R] (H-DSHAKRHHGYRRKFHERHHSHRGY-OH; N-terminus and C-terminus assumed), the “degradation by Sap2 (in words)” value on Sap2 was “no observable degradation”. The “degradation by Sap9 (in words)” value on Sap9 is “no observable degradation”.
On to `C[C@H](NC(=O)[C@H](Cc1c[nH]cn1)NC(=O)[C@H](CO)NC(=O)[C@@H](N)CC(=O)O)C(=O)N[C@@H](CCCCN)C(=O)N[C@@H](CCCNC(=N)N)C(=O)N[C@@H](Cc1c[nH]cn1)C(=O)N[C@@H](Cc1c[nH]cn1)C(=O)NCC(=O)N[C@@H](Cc1ccc(O)cc1)C(=O)N[C@@H](CCCNC(=N)N)C(=O)N[C@@H](CCCNC(=N)N)C(=O)N[C@@H](CCCCN)C(=O)N[C@@H](Cc1ccccc1)C(=O)N[C@@H](Cc1c[nH]cn1)C(=O)N[C@@H](CCC(=O)O)C(=O)N[C@@H](CCCCN)C(=O)N[C@@H](Cc1c[nH]cn1)C(=O)N[C@@H](Cc1c[nH]cn1)C(=O)N[C@@H](CO)C(=O)N[C@@H](Cc1c[nH]cn1)C(=O)N[C@@H](CCCNC(=N)N)C(=O)NCC(=O)N[C@@H](Cc1ccc(O)cc1)C(=O)O` [Peptide K11R] (H-DSHAKRHHGYRRKFHEKHHSHRGY-OH; N-terminus and C-terminus assumed), for which, on Sap9, the “degradation by Sap9 (in words)” value is recorded as “did not show a significant increase in resistance to the protease” and the “degradation at higher Sap9 concentration (in words)” value was “significant reduction in degradation compared to Hst-5”. Also, the “degradation by C. albicans cells (in words)” value in data set [1] was “did not show a significant difference in degradation of the peptide compared to Hst-5”.
